Measurements as given in patent US20260248800A1, “FERROPTOSIS INHIBITORS AND USES THEREOF” (UNIVERSITY OF OTTAWA, priority 2022, published 2026).
Like-named read-outs stand apart in the source and are kept apart here. Marks after values point to notes of the source that are not given here.

Experiments:
[1] = at 37° C. in PhCl; literature; cited from earlier work
[2] = test system: MEFs; settings: inhibition of RSL3-induced ferroptosis in MEFs; Shah et al., 2017; cited from earlier work
[3] = MeOAMVN-initiated co-autoxidation of STY-BODIPY and egg PC liposomes (FENIX); assay type: biochemical; settings: for n (radical-trapping stoichiometry): MeOAMVN-initiated co-autoxidation of STY-BODIPY and egg PC liposomes; for predicted increase in kinh^lip relative to PNX: predicted/estimated kinh^lip vs PNX; for kinh^lip (predicted/estimated): estimated from kinh^0 and effective β2^H of egg PC liposomes
[4] = test system: Pfa-1 mouse embryonic fibroblasts (MEFs); test: cells; settings: Fibroblast
[5] = H-bond acidity (α2^H) of the RTA by 1H NMR; assay type: physicochemical; settings: estimated from the 1H NMR chemical shift difference of the amine proton in DMSO-d6 and benzene-d6
[6] = Liver microsome stability assay; settings: pH 7.4
[7] = test system: Pfa-1 mouse embryonic fibroblasts (MEFs)
[8] = mouse, microsomes
[9] = in dilinoleoyl phosphatidylcholine (PC) liposomes; cited from earlier work
[10] = inhibited autoxidation of styrene in chlorobenzene; cited from earlier work
[11] = apparent inhibition rate constant, MeOAMVN-initiated autoxidation of egg PC liposomes, determined by absorbance (STY-BODIPY 10-20 μM, 565 nm)
[12] = measured in MeOAMVN-initiated autoxidation of egg PC liposomes
[13] = 5 h, read-out: Pfa-1 MEF Ferroptosis EC50, RSL3-induced cell death (150 nM for 5 hours), AquaBluer
[14] = Table 6, from survival curve of RSL3 induced ferroptosis of pfa-1 MEFS
[15] = apparent inhibition rate constant, MeOAMVN-initiated autoxidation of egg PC liposomes, determined by fluorescence
[16] = read-out: Pfa-1 MEF Ferroptosis EC50, RSL3-induced cell death (150 nM for 5 hours), AquaBluer
[17] = RSL3-induced cell death (150 nM for 5 hours), AquaBluer
[18] = predicted from log kinh^0, α2^H and β2^H=0.69 using Eq. 4 (too reactive to be determined directly)

α2^H [5]	SMILES	n (radical-trapping stoichiometry) [3]	EC50 [4, 13] [nM]	EC50 [4, 14] [nM]	kinh^lip [3, 15]	EC50 [7, 16] [nM]	other results
0.51	FC(F)(F)c1ccc2c(c1)Nc1ccccc1O2 [Compound 6, 2-trifluoromethylphenoxazine]	3.0 ± 0.1	9		(75 ± 11) 10^5 M^−1s^−1	8.8 ± 0.5	
	CC(C)(C)c1ccc2c(c1)Oc1ccc(C(F)(F)F)cc1N2 [Compound 7, 3-tert-Butyl-8-trifluoromethylphenoxazine]	2.8 ± 0.1	4.1 ± 0.1	4.1 ± 0.1	(75 ± 13) 10^5 M^−1s^−1		Pfa-1 MEF Ferroptosis EC50 [7, 17]: single-digit nanomolar potency
	CC(C)(C)c1ccc2c(c1)Nc1cc(C(F)(F)F)ccc1O2 [Compound 8, 2-tert-Butyl-8-trifluoromethylphenoxazine]	2.3 ± 0.1	5.6 ± 0.3	5.6 ± 0.3	(64 ± 9) 10^5 M^−1s^−1		Pfa-1 MEF Ferroptosis EC50 [7, 17]: single-digit nanomolar potency
	CC(C)(C)c1ccc2c(c1)Oc1cc(C(F)(F)F)ccc1N2 [Compound 10, 3-tert-Butyl-7-trifluoromethylphenoxazine]	2.8 ± 0.1	5.2 ± 0.2	5.2 ± 0.2	(55 ± 10) 10^5 M^−1s^−1		Pfa-1 MEF Ferroptosis EC50 [7, 17]: single-digit nanomolar potency
	CC(C)(C)c1ccc2c(c1)Nc1ccc(C(F)(F)F)cc1O2 [Compound 11, 2-tert-Butyl-7-trifluoromethylphenoxazine]	2.6 ± 0.1	3.6 ± 0.2	3.6 ± 0.2	(44 ± 3) 10^5 M^−1s^−1		Pfa-1 MEF Ferroptosis EC50 [7, 17]: single-digit nanomolar potency
0.43	Clc1ccc2c(c1)Nc1ccccc1S2 [Compound 24, reference compound]	2.1 ± 0.1			(39 ± 4) 10^5 M^−1s^−1	56 ± 10	
0.44	FC(F)(F)c1ccc2c(c1)Nc1ccccc1S2 [Compound 25, reference compound]	2.5 ± 0.1			(19 ± 1) 10^5 M^−1s^−1	16 ± 1	
0.41	Cc1ccc2c(c1)Oc1cc(C)ccc1N2 [Compound 35, 3,7-Dimethylphenoxazine]		6			5.4 ± 0.2	kinh^lip [3, 18]: 1180 ^f 10^5 M^−1s^−1; predicted increase in kinh^lip relative to PNX [3]: 5.1 fold
0.39	Cc1cc(C)c2c(c1)Nc1cc(C)cc(C)c1O2 [Compound 37, 2,4,6,8-Tetramethylphenoxazine]		9.6 ± 0.2				kinh^lip [3, 18]: 1500 ^f 10^5 M^−1s^−1
0.10	Cc1cc(C)c2c(c1)Oc1cc(C)cc(C)c1N2 [Compound 38, 1,3,7,9-Tetramethylphenoxazine]		7.6 ± 0.2				kinh^lip [3, 18]: 1500 ^f 10^5 M^−1s^−1
0.42	COc1ccc2c(c1)Oc1ccccc1N2 [Compound 39, 3-methoxyphenoxazine]		12				kinh^lip [3, 18]: 1490 ^f 10^5 M^−1s^−1; predicted increase in kinh^lip relative to PNX [3]: 6.7 fold
0.40	COc1ccc2c(c1)Oc1cc(OC)ccc1N2 [Compound 40, 3,7-dimethoxyphenoxazine]		11				kinh^lip (predicted/estimated) [3]: 6e+06 M⁻¹ s⁻¹; kinh^lip [3, 18]: 6530 ^f 10^5 M^−1s^−1
	CC(c1ccc2c(c1)Nc1ccc(C(F)(F)F)cc1O2)S(=O)(=O)NCCN(C)C (stereo not shown) [Compound 44, N-(2-(dimethylamino)ethyl)-1-(7-(trifluoromethyl)-10H-phenoxazin-2-yl)ethanesulfonamide]		2.2 ± 0.1	2.2 ± 0.1			Pfa-1 MEF Ferroptosis EC50 [7, 17]: single-digit nanomolar potency
	CC(c1ccc2c(c1)Nc1ccc(C(F)(F)F)cc1O2)S(=O)(=O)N1CCNCC1 (stereo not shown) [Compound 46, 2-(1-(piperazin-1-ylsulfonyl)ethyl)-7-(trifluoromethyl)-OH-phenoxazine]		3 ± 0.1	3 ± 0.1			Pfa-1 MEF Ferroptosis EC50 [7, 17]: single-digit nanomolar potency
	CCOC(=O)c1ccc(NC2CCCCC2)c(N)c1 [Fer-1, ferrostatin-1]					27	kinh [1]: 300000 M⁻¹ s⁻¹; EC50 [2]: 45 nM; t1/2 [8]: 5.3 ± 0.1 min; EC50 [7, 14]: 27 ± 2 nM
	Clc1cccc(CN=C2Nc3ccccc3NC23CCNCC3)c1 [Lip-1, liproxstatin-1]					18	t1/2 ([6]; BALB/c mouse liver microsomes increased (1.0 mg/mL), 1 mM NADPH, 37° C., 10 μM compound (Verapamil 1 μM)): (133 ± 8.4) ^d min; kinh [1]: 200000 M⁻¹ s⁻¹; EC50 [2]: 35 nM; EC50 [7, 14]: 18 ± 1 nM
0.38	Cc1c(C)c2c(c(C)c1O)CCC(C)(C)O2 [PMC, 2,2,5,7,8-Pentamethyl-6-chromanol, reference compound]	(2)	360 ± 30		(29 ± 2) 10^5 M^−1s^−1		kinh^lip (predicted/estimated) [3]: 35000 M⁻¹ s⁻¹; kinh^lip [3, 12]: 29000 M⁻¹ s⁻¹
	Cc1c(C)c2c(c(C)c1O)CC[C@@](C)(CCC[C@H](C)CCC[C@H](C)CCCC(C)C)O2 [α-TOH, α-tocopherol]						kinh [9]: 6000 M⁻¹ s⁻¹; kinh [10]: 3e+06 M⁻¹ s⁻¹

SMILES	α2^H [5]	n (radical-trapping stoichiometry) [3]	EC50 [4, 13] [nM]	EC50 [4, 14] [nM]	kinh^lip [3, 15]	EC50 [7, 16] [nM]	other results
c1ccc2c(c1)Nc1ccccc1O2 [Compound 1, phenoxazine, reference compound]	0.44	2.0 ± 0.1					kinh [1]: ~ 4×10^7 M^−1s^−1; EC50 [2]: 9 nM; kinh^lip [3, 11]: (232 ± 23)^e 10^5 M^−1s^−1; kinh^lip [3, 12]: 220000 M⁻¹ s⁻¹; EC50 [4]: 16 ± 1 nM; EC50 ([4]; 5 h, read-out: Pfa-1 MEF Ferroptosis EC50): 16 nM
c1ccc2c(c1)Nc1ccccc1S2 [Compound 2, phenothiazine, reference compound]	0.38	1.9 ± 0.1	24 ± 1	24 ± 1			half-life at 10 μM ([6]; BALB/c, mouse, liver microsomes): 11.5 min; kinh [1]: ~ 8×10^6 M^−1s^−1; kinh^lip [3, 11]: (110 ± 20)^e 10^5 M^−1s^−1
O=[N+]([O-])c1ccc2c(c1)Sc1cc([N+](=O)[O-])ccc1N2 [Compound 29, 3,7-Dinitrophenothiazine, reference compound]	0.62		> 1000		(0.41 ± 0.04) 10^5 M^−1s^−1	≥ 1000	kinh^lip [3, 12]: 400 M⁻¹ s⁻¹; viability at 1000 µM ([4]; read-out: apparent cell viability): ~50%
